According to the supplement of paper PMC4862054:

How the values were obtained:
MDA-MB-468 [1] = assay: drug sensitivity score (DSS), CellTiter-Blue viability (DSS (AUC-based score)); higher = stronger viability inhibition; extreme values may be limits of the assay; conditions: incubation time: 72 h
Outline: (§1)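 Into 384-well plates carrying compound in a 5- or 9-concentration series went 20 µl of breast cancer cell suspension, followed by 72 h of incubation. Adding 2.5 µl CellTiter-Blue per well and incubating 2 h at 37 °C preceded fluorescence measurement at 560/590 nm. After normalisation of each plate to 0.1 % DMSO and a positive kill control, dose-response curves were fitted and the area beneath them taken as the drug sensitivity score.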

CAL-148 [2] = assay: as above; conditions: incubation time: 72 h
Outline: as §1

BT-474 [3] = assay: normalised viability (% of control), CellTiter-Blue; higher = more viable cells (100 = DMSO, 0 = benzethonium chloride kill control); conditions: 1 nM; incubation time: 72 h
Protocol: (§2)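 DSRT, CellTiter-Blue viability, 72 h incubation. Signal is normalised to DMSO and benzethonium chloride controls. Value is the normalised response at dose 1.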

CAL-85-1 [4] = assay: as above; conditions: 1 nM; incubation time: 72 h
Protocol: as §2

HCC1599 = assay: normalised viability (% of control), CellTiter-Blue; higher = more viable cells (about 100 = DMSO control); conditions: incubation time: 72 h
Outline: (§3)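 Compound dissolved in 5 µl medium was pre-loaded into 384-well plates, and breast cancer cell lines in 20 µl suspension were seeded on top and incubated 72 h. After adding 2.5 µl CellTiter-Blue reagent for 2 h at 37 °C, fluorescence was read at 560/590 nm. Plates were normalised to vehicle (100) and a positive kill control (0), with Z'-factor quality control. Each value is normalised viability at a single listed concentration from the series.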

BT-474 [5] = assay: as above; conditions: incubation time: 72 h
Outline: as §3

Hs578T = assay: as above; conditions: incubation time: 72 h
Outline: as §3

CAL-85-1 [6] = assay: as above; conditions: incubation time: 72 h
Outline: as §3

CAL-51 = assay: as above; conditions: incubation time: 72 h
Outline: as §3

MDA-MB-436 = assay: as above; conditions: incubation time: 72 h
Outline: as §3

BT-549 = assay: as above; conditions: incubation time: 72 h
Outline: as §3

HDQ-P1 = assay: as above; conditions: incubation time: 72 h
Outline: as §3

HCC1143 = assay: as above; conditions: incubation time: 72 h
Outline: as §3

SK-BR-3 = assay: as above; conditions: incubation time: 72 h
Outline: as §3

MFM-223 = assay: as above; conditions: incubation time: 72 h
Outline: as §3

MDA-MB-468 [7] = assay: as above; conditions: incubation time: 72 h
Outline: as §3

HCC1937 = assay: as above; conditions: incubation time: 72 h
Outline: as §3

CAL-148 [8] = assay: as above; conditions: incubation time: 72 h
Outline: as §3

MDA-MB-231 = assay: as above; conditions: incubation time: 72 h
Outline: as §3

DU-4475 = assay: as above; conditions: incubation time: 72 h
Outline: as §3

MDA-MB-453 = assay: as above; conditions: incubation time: 72 h
Outline: as §3

CAL-120 = assay: as above; conditions: incubation time: 72 h
Outline: as §3

N#Cc1ccc(C(c2ccc(C#N)cc2)n2cncn2)cc1 [Letrozole]
Conditions | drug sensitivity score | normalised viability [%]
BT-474 [3] | – | 73.4
CAL-85-1 [4] | – | 83.2
CAL-148 [2] | 0 | –
MDA-MB-468 [1] | 0 | –

normalised viability [%]
Conditions | 3 nM | 10 nM | 30 nM | 100 nM | 1000 nM | 10000 nM
BT-474 [5] | – | 105 | – | – | 109 | 109
BT-549 | – | 83.5 | – | – | 84 | 90.5
CAL-51 | 115 | – | 107 | 103 | – | –
CAL-85-1 [6] | 86.9 | – | 85 | 87.1 | – | –
CAL-120 | – | 72.4 | – | – | 86.6 | 80.2
CAL-148 [8] | 93.8 | – | 93 | 94.8 | – | –
DU-4475 | 94.6 | – | 81.4 | 82 | – | –
HCC1143 | – | 85.4 | – | – | 90.7 | 78.4
HCC1599 | – | 81.2 | – | – | 70.7 | 81.9
HCC1937 | – | 81.8 | – | – | 82.6 | 82
HDQ-P1 | 90.8 | – | 79.5 | 84.5 | – | –
Hs578T | – | 91.8 | – | – | 91 | 98.9
MDA-MB-231 | – | 86.3 | – | – | 87.8 | 95.5
MDA-MB-436 | – | 113 | – | – | 96.1 | 105
MDA-MB-453 | 105 | – | 76.8 | 93.1 | – | –
MDA-MB-468 [7] | – | 101 | – | – | 115 | 92.7
MFM-223 | – | 58.8 | – | – | 70.5 | 49.2
SK-BR-3 | – | 79.4 | – | – | 103 | 85.2

C[C@H]1C[C@@H]2[C@H]([C@@H](O)C[C@@]3(C)[C@H]2CC[C@]3(O)C(=O)CO)[C@@]2(C)C=CC(=O)C=C12 [Methylprednisolone]
Conditions | drug sensitivity score | normalised viability [%]
BT-474 [3] | – | 108
CAL-85-1 [4] | – | 84.6
CAL-148 [2] | 0 | –
MDA-MB-468 [1] | 0 | –

normalised viability [%]
Conditions | 3 nM | 10 nM | 30 nM | 100 nM | 1000 nM | 10000 nM
BT-474 [5] | – | 121 | – | – | 105 | 112
BT-549 | – | 89.4 | – | – | 77.8 | 78.4
CAL-51 | 100 | – | 100 | 98.2 | – | –
CAL-85-1 [6] | 87.6 | – | 102 | 109 | – | –
CAL-120 | – | 89.7 | – | – | 79.3 | 81.1
CAL-148 [8] | 88 | – | 99.4 | 102 | – | –
DU-4475 | 84.7 | – | 83.5 | 86.4 | – | –
HCC1143 | – | 89.8 | – | – | 111 | 92.5
HCC1599 | – | 105 | – | – | 102 | 92.5
HCC1937 | – | 80.2 | – | – | 106 | 80.4
HDQ-P1 | 108 | – | 103 | 122 | – | –
Hs578T | – | 102 | – | – | 116 | 111
MDA-MB-231 | – | 104 | – | – | 114 | 119
MDA-MB-436 | – | 108 | – | – | 92.2 | 108
MDA-MB-453 | 112 | – | 85.6 | 75.3 | – | –
MDA-MB-468 [7] | – | 92.7 | – | – | 117 | 88.2
MFM-223 | – | 89.4 | – | – | 86.3 | 74.8
SK-BR-3 | – | 107 | – | – | 97.6 | 91.4

O=C(O)C(=O)O.[NH-][C@@H]1CCCC[C@H]1[NH-].[Pt+2] [Oxaliplatin]
Conditions | drug sensitivity score | normalised viability [%]
BT-474 [3] | – | 103
CAL-85-1 [4] | – | 86.7
CAL-148 [2] | 2.79 | –
MDA-MB-468 [1] | 2.32 | –

normalised viability [%]
Conditions | 3 nM | 10 nM | 30 nM | 100 nM | 1000 nM | 10000 nM
BT-474 [5] | – | 125 | – | – | 118 | 83.5
BT-549 | – | 93.9 | – | – | 74.2 | 52.6
CAL-51 | 97.9 | – | 92.2 | 94.9 | – | –
CAL-85-1 [6] | 99 | – | 83.2 | 87.3 | – | –
CAL-120 | – | 87.1 | – | – | 93.2 | 52.2
CAL-148 [8] | 93 | – | 106 | 120 | – | –
DU-4475 | 112 | – | 106 | 100 | – | –
HCC1143 | – | 82.2 | – | – | 94.2 | 44
HCC1599 | – | 87.3 | – | – | 79.6 | 70
HCC1937 | – | 90.7 | – | – | 82.2 | 33.9
HDQ-P1 | 110 | – | 103 | 107 | – | –
Hs578T | – | 106 | – | – | 129 | 66.9
MDA-MB-231 | – | 92.2 | – | – | 83.5 | 48.9
MDA-MB-436 | – | 111 | – | – | 88.6 | 56.5
MDA-MB-453 | 119 | – | 101 | 113 | – | –
MDA-MB-468 [7] | – | 98.7 | – | – | 97.7 | 56.5
MFM-223 | – | 98.6 | – | – | 94.1 | 50.5
SK-BR-3 | – | 98.1 | – | – | 122 | 47.5

Nc1nc2[nH]cc(CCc3ccc(C(=O)N[C@@H](CCC(=O)O)C(=O)O)cc3)c2c(=O)[nH]1 [Pemetrexed]
Conditions | drug sensitivity score | normalised viability [%]
BT-474 [3] | – | 106
CAL-85-1 [4] | – | 89.2
CAL-148 [2] | 0 | –
MDA-MB-468 [1] | 0 | –

normalised viability [%]
Conditions | 3 nM | 10 nM | 30 nM | 100 nM | 1000 nM | 10000 nM
BT-474 [5] | – | 123 | – | – | 112 | 122
BT-549 | – | 90.8 | – | – | 90.7 | 79.6
CAL-51 | 105 | – | 100 | 107 | – | –
CAL-85-1 [6] | 99.6 | – | 91 | 101 | – | –
CAL-120 | – | 84.2 | – | – | 77.4 | 63.3
CAL-148 [8] | 95 | – | 105 | 106 | – | –
DU-4475 | 106 | – | 117 | 108 | – | –
HCC1143 | – | 90.8 | – | – | 77.4 | 72.2
HCC1599 | – | 106 | – | – | 80.2 | 106
HCC1937 | – | 89 | – | – | 93.4 | 85.5
HDQ-P1 | 110 | – | 100 | 101 | – | –
Hs578T | – | 124 | – | – | 106 | 82.5
MDA-MB-231 | – | 97.5 | – | – | 98.9 | 92.4
MDA-MB-436 | – | 107 | – | – | 75.3 | 82.5
MDA-MB-453 | 128 | – | 96 | 114 | – | –
MDA-MB-468 [7] | – | 97.7 | – | – | 71.9 | 99.5
MFM-223 | – | 96.2 | – | – | 101 | 98.2
SK-BR-3 | – | 97.5 | – | – | 59.2 | 62.2
